Measurements from PMC2697262 (Biochemistry, 2009).

Tests used:
[1] = molecular target: orotidine 5’-monophosphate decarboxylase (MtOMPDC) (Methanothermobacter thermautotrophicus, UniProt O26232); test: X-ray crystal structure, […] Å; format: biochemical
[2] = molecular target: orotidine 5’-monophosphate decarboxylase (MtOMPDC) (Methanothermobacter thermautotrophicus, UniProt O26232, D70G)
orotidine 5’-monophosphate decarboxylase (MtOMPDC) (Methanothermobacter thermautotrophicus, UniProt O26232, D70G), sequence (O26232 whole entry D70G): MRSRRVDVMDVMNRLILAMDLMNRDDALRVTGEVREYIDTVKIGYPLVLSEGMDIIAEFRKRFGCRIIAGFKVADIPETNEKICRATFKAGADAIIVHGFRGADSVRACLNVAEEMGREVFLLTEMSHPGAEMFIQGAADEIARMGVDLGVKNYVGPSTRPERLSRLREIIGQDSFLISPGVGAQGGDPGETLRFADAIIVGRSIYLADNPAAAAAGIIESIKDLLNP

orotidine 5’-monophosphate decarboxylase (MtOMPDC) (Methanothermobacter thermautotrophicus, UniProt O26232), sequence (O26232 whole entry): as the sequence (O26232 whole entry D70G) above, with G70D counted along it

Row | Ki [1] | SMILES | X-ray crystal structure, 1.3 Å; also H6 exchange by NMR [2]
1 | 100 µM | O=C1CC(C(=O)O)N([C@@H]2O[C@H](COP(=O)(O)O)[C@@H](O)[C@H]2O)C(=O)N1 (stereo partly drawn) [(6R)-H2OMP] | –
2 | – | O=c1[nH]c(=O)n([C@@H]2O[C@H](COP(=O)(O)O)[C@@H](O)[C@H]2O)cc1F [FUMP] | structures were obtained for D70G in the absence of ligands and complexed with UMP and FUMP
